Earlier results on one compound are cited in patent EP0137640A1, “Chain extended analogues of methotrexate and aminopterin” (DANA-FARBER CANCER INSTITUTE, INC., priority 1983, dated 1985).

The structures appear in SMILES notation.

This data set deals with carboxypeptidase Gl. Conditions: as described by Chabner et al. (1972) Nature, 239, 395.

For `CN(Cc1cnc2nc(N)nc(N)c2n1)c1ccc(C(=O)N[C@@H](CCC(=O)O)C(=O)O)cc1` [MTX, 4-amino-4-deoxy-N^10-methyl-pteroylglutamic acid], the “cleavage by carboxypeptidase Gl” value is on record as “rapidly cleaved”.
